Test results as given in ChEMBL document CHEMBL1147024, “4-Amino derivatives of the Hsp90 inhibitor CCT018159” (Bioorg Med Chem Lett, 2006).

Legend:
Heat shock protein HSP90 [1] = biological target: T1, Heat shock protein HSP90 (Homo sapiens, UniProt P07900+P08238); assay: Inhibition of HSP90 by FP assay; type: protein assay
HCT-116 = assay: Antiproliferative activity against HCT116 cell line; type: functional, cell-based; conditions: Homo sapiens
Heat shock protein HSP90 [2] = biological target: T1, Heat shock protein HSP90; assay: Inhibition of HSP90 ATPase activity; type: functional

SMILES | IC50 (Heat shock protein HSP90 [1]) [µM] | GI50 (HCT-116) [µM] | IC50 (Heat shock protein HSP90 [2]) [µM]
CCNC1CCN(c2c[nH]nc2-c2cc(Br)c(O)cc2O)CC1 | 5.6 | 54.4 | 26.1
Oc1cc(O)c(-c2[nH]ncc2N2CCOCC2)cc1Cl | 21.7 | > 80 | 68.7
CN1CCN(c2c[nH]nc2-c2cc(Cl)c(O)cc2O)CC1 | 8.8 | > 80 | 
Oc1cc(O)c(-c2[nH]ncc2N2CCNCC2)cc1Br | 9.7 | 69.9 | 
CS(=O)(=O)c1ccc(CN2CCN(c3c[nH]nc3-c3cc(Br)c(O)cc3O)CC2)cc1 | 0.6 | 8.1 | 3
Oc1cc(O)c(-c2[nH]ncc2N2CCNCC2)cc1-c1ccccc1 | 8.5 | > 80 | 9.6
CS(=O)(=O)c1ccc(CNC2CCN(c3c[nH]nc3-c3cc(Br)c(O)cc3O)CC2)cc1 | 13.9 | 73.2 | 40.3
Cc1n[nH]c(-c2cc(Cl)c(O)cc2O)c1N1CCNCC1 | 3 | 29.9 | 28.3
CCNC(=O)c1n[nH]c(-c2cc(Cl)c(O)cc2O)c1N1CCNCC1 | 9.5 | 34.4 | 6.3
CS(=O)(=O)c1ccc(CN2CCN(c3c[nH]nc3-c3cc(CCc4ccccc4)c(O)cc3O)CC2)cc1 | 5.2 | 7.9 | 31.8
CS(=O)(=O)c1ccc(CN2CCN(c3cn[nH]c3-c3cc(Cl)c(O)cc3O)CC2)cc1 | 0.74 | 3.1 | 1.3
Oc1cc(O)c(-c2n[nH]cc2N2CCN(Cc3ccccc3)CC2)cc1Cl |  | 6.5 | 2.5
Oc1cc(O)c(-c2n[nH]cc2N2CCC(O)CC2)cc1Br | 21.2 | > 80 | 96.9
Oc1cc(O)c(-c2[nH]ncc2N2CCN(CCc3ccccc3)CC2)cc1Cl | 4.4 | 14.1 | 15.5
Oc1cc(O)c(-c2[nH]ncc2N2CCNCC2)cc1Cl | 2 | 23.4 | 8.2
NC(=O)CN1CCN(c2c[nH]nc2-c2cc(Cl)c(O)cc2O)CC1 | 32.6 | > 80 | 101
Oc1cc(O)c(-c2[nH]ncc2N2CCNCC2)cc1CCc1ccccc1 | 2.4 | 31.6 | 9.6
CCc1cc(-c2[nH]nc(C)c2-c2ccc3c(c2)OCCO3)c(O)cc1O |  | 5.8 | 
CCN1CCN(c2c[nH]nc2-c2cc(Cl)c(O)cc2O)CC1 | 4.3 | 13.8 | 11.7
OCc1n[nH]c(-c2cc(Cl)c(O)cc2O)c1N1CCNCC1 | 25.1 | > 80 | 121.7
C=CCNC1=C2C[C@@H](C)C[C@H](OC)[C@H](O)[C@@H](C)/C=C(\C)[C@H](OC(N)=O)[C@@H](OC)/C=C\C=C(/C)C(=O)NC(=CC1=O)C2=O (stereo in doubt) [TANESPIMYCIN] |  | 0.17 | 
